# Columns and labels:
# [1] = system: increase in intravesical pressure induced by carbachol in anesthetized dog; test: Effect on the increase in intravesical pressure induced by carbachol in anesthetized dog; type: in vivo, Beagle dogs; conditions: intraduodenal administration
# Procedure: Effect on the increase in intravesical pressure induced by carbachol in anesthetized dog
# Female Beagle dogs weighing 8.0-15.0 kg were fasted for 24 hours and maintained under halothane anesthesia. A 12F Foley catheter was lubricated with water soluble jelly, inserted into the urethral orifice and advanced approximately 10 cm until the balloon tip was placed well inside the bladder. The balloon was then inflated with 5 ml of room air and catheter slowly withdrawn just part the first resistance that is felt at the bladder neck. Urine was completely drained out through the catheter, and 30 ml of biological saline was infused. The catheter was connected to pressure transducer, and intravesical pressure was continuously recorded. Intraduodenal administration of test compound (I) inhibited carbachol (1.8 μg/kg)-induced increase in intravesical pressure (IVP).
Structure (SMILES),melting point [°C],"% inhibition of carbachol-induced increase in IVP ([1]; 0.32 mg/kg, female Beagle dogs under halothane anesthesia, carbachol 1.8 μg/kg) [%]",carbachol (1.8 μg/kg)-induced increase in intravesical pressure (IVP) ([1]; anesthetized female Beagle dogs)
CCOC(=O)COc1ccc(S(=O)(=O)c2ccc(CCNC[C@H](O)c3cccc(Cl)c3)cc2)cc1.Cl,198 to 200,–,–
"O=S(=O)(c1ccccc1)c1ccc(C[C@@H](CO)NC[C@H](O)COc2ccccc2)cc1 [Test Compound (1), (2S)-2-[((2S)-2-Hydroxy-3-phenoxypropyl)amino]-3-[4-(phenylsulfonyl)phenyl]-1-propanol]",–,30,inhibited
